Data on six compounds can be found in ChEMBL document CHEMBL1201862, “PubChem BioAssay data set” (2004).

Broadly, the AC50 is the midpoint of the concentration-response curve, whichever way the signal moves. As usually defined, the IC50 is the concentration that inhibits the measured activity by half. By EC50 is commonly meant the concentration at which the effect is half-maximal. The term CC50 denotes the concentration that lowers cell viability or growth by half.

The source made the active and inactive calls.

Experiment [1] is described as follows: HIV-1 AD8 envelope cell-cell fusion blockers – cherry-pick, dose response (AID 652062).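 Further: luciferase signal from cell-cell fusion driven by HIV-1 clade B AD8 Env; potency is for inhibitors of fusion seen as a drop in luminescence.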 It counts as functional, cell-based.
Experiment [2] in a line: off-target signal loss in HeLa-CEM21 co-culture – HeLa F-luc CTL cells, cherry-picked, counter-screen for HIV-1 Env fusion inhibitor project, dose response (AID 652040).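 Further: potency for signal decrease marking cytotoxic or nonspecific inhibition.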 It counts as functional, cell-based. (In general: The purpose of a counterscreen is to sort out artefacts and off-target activity.)
For experiment [3], the target named is Type-1 angiotensin II receptor (Homo sapiens, UniProt P30556). In words: antagonism of angiotensin II type 1 receptor – cell-based, uHTS hits, selectivity assay for APJ receptor antagonist project, dose response (AID 463214).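 Further: antagonist potency against angiotensin II stimulated AT1 response.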 It counts as functional.
The nature of experiment [4]: blockers of HIV-1 envelope-mediated cell-cell fusion – cherry-pick, dose response (AID 652057). It counts as functional, cell-based.
For another experiment, the target named is Beta-galactosidase (Escherichia coli, UniProt Q8VNN2). In words: PubChem AID 485352. It counts as functional.
Experiment [5] is described as follows: blockers of HIV-1 ZM109 envelope-driven cell-cell fusion – HeLa effector, CEM target cells, luciferase, cherry-pick, dose response (AID 652058).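 Further: luciferase signal from HIV-1 Env mediated cell-cell fusion of effector and target cells.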 It counts as functional, cell-based.
The target in experiment [6] is Beta-2 adrenergic receptor (Homo sapiens, UniProt P07550). Put plainly: ADRB2 activation measured by internalization – cell-based, FAP fluorogen, flow cytometry, cherry pick 1, dose response (AID 588763). It counts as functional.
Experiment [7] addresses Nuclear receptor subfamily 0 group B member 1 (Homo sapiens, UniProt P51843). In words: Luminescence-based cell-based high throughput dose response assay for inhibitors of the orphan nuclear receptor subfamily 0, group B, member 1 (DAX1; NR0B1). [Related pubchem assays (depositor defined):AID504766, AID504790]. It counts as functional.
Experiment [8] deals with HEK293. In words: cells. The note with it: Homo sapiens. It counts as functional, cell-based.
For experiment [9], the target named is Glycogen synthase kinase-3 beta (Homo sapiens, UniProt P49841). Put plainly: Inhibition of Human GSK-3 beta Activity Measured in Biochemical System Using Microfluidics - 2063-05_Inhibitor_Dose_DryPowder_Activity. [Related pubchem assays (depositor defined):AID2709].
A short description of experiment [10]: Vero E6 cell cytotoxicity, dose response, cytotoxicity control for non-replicating M. tuberculosis project, secondary assay (AID 492998). It counts as functional, VeroE6. The conditions noted are these: Vero C1008.
The target of experiment [11] is T1, Microphthalmia-associated transcription factor (Homo sapiens, UniProt O75030).
T1 sequence (O75030 whole entry): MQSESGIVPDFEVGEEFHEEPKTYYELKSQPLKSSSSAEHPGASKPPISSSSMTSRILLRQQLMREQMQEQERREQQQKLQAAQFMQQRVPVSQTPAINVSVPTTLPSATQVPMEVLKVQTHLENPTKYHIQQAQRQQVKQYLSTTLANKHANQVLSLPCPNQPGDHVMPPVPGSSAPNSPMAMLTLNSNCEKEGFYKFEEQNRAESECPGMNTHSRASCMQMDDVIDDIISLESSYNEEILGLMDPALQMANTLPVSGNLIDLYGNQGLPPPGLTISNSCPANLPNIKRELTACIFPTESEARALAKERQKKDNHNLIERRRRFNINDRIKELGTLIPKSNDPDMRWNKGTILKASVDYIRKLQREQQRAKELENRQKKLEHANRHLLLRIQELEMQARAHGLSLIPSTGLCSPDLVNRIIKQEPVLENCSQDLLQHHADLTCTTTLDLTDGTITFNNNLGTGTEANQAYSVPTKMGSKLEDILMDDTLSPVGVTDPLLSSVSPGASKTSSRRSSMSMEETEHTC
Put plainly: reducers of TRPM1 reporter luminescence, concentration series – cell-based, SK-MEL-5, cherry-picked, set 3, MITF inhibitor project, dose response (AID 493073).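 Further: SK-MEL-5 melanoma cells with luciferase driven by the MITF target TRPM1 promoter.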 It counts as functional.

In experiment [12] the target is Glycogen synthase kinase-3 alpha (Homo sapiens, UniProt P49840). Put plainly: Inhibition of Human GSK-3 alpha Activity Measured in Biochemical System Using Microfluidics - 2063-06_Inhibitor_Dose_DryPowder_Activity. [Related pubchem assays (depositor defined):AID2709].
Experiment [13] in a line: HepG2 cell cytotoxicity, dose response, cytotoxicity control for non-replicating M. tuberculosis project (AID 489018). It counts as functional. The note with it: Mycobacterium tuberculosis.
Experiment [14] in a line: THP-1 cell cytotoxicity, dose response, cytotoxicity control for non-replicating M. tuberculosis project (AID 489025). It counts as functional.
A short description of another experiment: cells. It counts as functional.
The test system of another experiment is Jurkat. Put plainly: SAR Analysis of small molecule inhibitors of both B-cell and T-cell specific antigen receptor-induced NF-kB activation in a Jurkat cell line using a luminescence assay. [Related pubchem assays (depositor defined):AID435003, AID435022, AID465, AID489029]. It counts as functional, cell-based. The conditions noted are these: Homo sapiens.

Experiment [15] relates to HEK293. In words: HEK293T cell viability loss, resazurin readout – resazurin fluorescence, cytotoxicity control for NF-kB activator project, SAR follow-up (AID 493251). It counts as functional, cell-based. The conditions noted are these: Homo sapiens. A general note: Alamar Blue is a resazurin reagent that responds to reducing activity.
In experiment [16] the test system is HEK293. In words: SAR Analysis of small molecule inhibitors of both B-cell and T-cell specific antigen receptor-induced NF-kB activation in a HEK-293T cell line using a luminescence assay. [Related pubchem assays (depositor defined):AID435003, AID435022, AID465, AID489019, AID489029]. It counts as functional, cell-based. The note with it: Homo sapiens.
For experiment [17], the target named is T2, Sentrin-specific protease 8 (Homo sapiens, UniProt Q96LD8).
T2 sequence (Q96LD8 whole entry): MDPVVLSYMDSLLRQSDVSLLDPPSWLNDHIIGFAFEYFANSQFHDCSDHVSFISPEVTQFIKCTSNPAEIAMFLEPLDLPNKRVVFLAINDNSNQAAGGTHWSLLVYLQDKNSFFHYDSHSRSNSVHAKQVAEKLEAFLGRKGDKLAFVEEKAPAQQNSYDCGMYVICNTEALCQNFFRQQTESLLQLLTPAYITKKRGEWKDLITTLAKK
In words: inhibition of sentrin protease 8 – biochemical, luminescence, set 2, SAR follow-up (AID 588601). It counts as functional.

In experiment [18] the target is T3, Sentrin-specific protease 6 (Homo sapiens, UniProt Q9GZR1).
T3 sequence (Q9GZR1 whole entry): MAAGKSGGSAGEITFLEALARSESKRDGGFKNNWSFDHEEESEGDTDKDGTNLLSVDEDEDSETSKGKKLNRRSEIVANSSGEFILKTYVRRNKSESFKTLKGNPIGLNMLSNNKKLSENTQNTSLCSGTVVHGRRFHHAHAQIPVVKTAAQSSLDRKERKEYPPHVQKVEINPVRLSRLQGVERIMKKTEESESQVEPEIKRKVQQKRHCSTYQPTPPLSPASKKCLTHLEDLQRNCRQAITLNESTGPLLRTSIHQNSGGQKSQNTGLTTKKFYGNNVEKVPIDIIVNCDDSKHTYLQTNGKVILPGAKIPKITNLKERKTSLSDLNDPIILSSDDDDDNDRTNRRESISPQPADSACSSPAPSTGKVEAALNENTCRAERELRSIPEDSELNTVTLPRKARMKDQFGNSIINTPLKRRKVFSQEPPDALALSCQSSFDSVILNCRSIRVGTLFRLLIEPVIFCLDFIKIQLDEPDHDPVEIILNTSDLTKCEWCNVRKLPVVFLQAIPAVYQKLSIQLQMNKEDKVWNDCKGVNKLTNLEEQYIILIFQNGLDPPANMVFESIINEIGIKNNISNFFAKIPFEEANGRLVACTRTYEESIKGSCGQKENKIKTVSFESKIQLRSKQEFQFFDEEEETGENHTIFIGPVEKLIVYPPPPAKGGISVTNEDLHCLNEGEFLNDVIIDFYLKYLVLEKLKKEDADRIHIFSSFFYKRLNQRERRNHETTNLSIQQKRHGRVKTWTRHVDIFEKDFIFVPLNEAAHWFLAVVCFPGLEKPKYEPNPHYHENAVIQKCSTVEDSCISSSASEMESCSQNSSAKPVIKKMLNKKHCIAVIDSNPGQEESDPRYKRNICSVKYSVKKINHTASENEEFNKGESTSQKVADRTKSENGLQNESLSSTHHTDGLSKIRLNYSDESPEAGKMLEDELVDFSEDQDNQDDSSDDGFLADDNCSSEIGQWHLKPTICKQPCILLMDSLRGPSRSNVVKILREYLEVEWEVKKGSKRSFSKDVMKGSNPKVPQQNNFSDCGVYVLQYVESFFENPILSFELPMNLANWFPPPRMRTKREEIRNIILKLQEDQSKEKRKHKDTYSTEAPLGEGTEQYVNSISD
Put plainly: inhibition of human SENP6 catalytic domain – biochemical, luminescence, set 2, SAR follow-up (AID 588598). It counts as functional.

The target of experiment [19] is T4, Sentrin-specific protease 7 (Homo sapiens, UniProt Q9BQF6).
T4 sequence (Q9BQF6 whole entry): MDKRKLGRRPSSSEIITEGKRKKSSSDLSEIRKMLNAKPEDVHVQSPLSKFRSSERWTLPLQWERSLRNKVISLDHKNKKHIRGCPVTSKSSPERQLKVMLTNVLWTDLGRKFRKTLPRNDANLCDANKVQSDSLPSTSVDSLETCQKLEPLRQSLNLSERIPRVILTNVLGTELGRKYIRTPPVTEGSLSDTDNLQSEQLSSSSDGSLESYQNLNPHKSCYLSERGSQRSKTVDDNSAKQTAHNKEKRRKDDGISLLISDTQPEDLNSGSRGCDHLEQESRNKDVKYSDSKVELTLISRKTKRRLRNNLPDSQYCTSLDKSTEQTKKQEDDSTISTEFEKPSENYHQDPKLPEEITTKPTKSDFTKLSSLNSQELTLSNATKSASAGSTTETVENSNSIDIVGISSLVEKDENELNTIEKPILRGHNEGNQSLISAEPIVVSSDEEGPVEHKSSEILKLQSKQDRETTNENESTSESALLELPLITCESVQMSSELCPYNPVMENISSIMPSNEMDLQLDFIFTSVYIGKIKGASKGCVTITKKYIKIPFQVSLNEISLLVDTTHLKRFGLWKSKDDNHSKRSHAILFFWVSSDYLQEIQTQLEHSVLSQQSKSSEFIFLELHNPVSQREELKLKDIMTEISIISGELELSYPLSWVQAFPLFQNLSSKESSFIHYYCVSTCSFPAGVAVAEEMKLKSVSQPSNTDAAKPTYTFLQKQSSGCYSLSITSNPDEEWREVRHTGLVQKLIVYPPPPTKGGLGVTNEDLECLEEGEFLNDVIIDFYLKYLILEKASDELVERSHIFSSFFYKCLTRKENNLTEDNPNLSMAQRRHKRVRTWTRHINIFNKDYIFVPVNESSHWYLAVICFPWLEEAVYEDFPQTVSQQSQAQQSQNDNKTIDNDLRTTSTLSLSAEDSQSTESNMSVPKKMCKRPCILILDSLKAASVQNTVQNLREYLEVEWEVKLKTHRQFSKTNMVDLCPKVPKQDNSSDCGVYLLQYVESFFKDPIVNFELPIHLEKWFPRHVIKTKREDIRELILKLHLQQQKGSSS
Put plainly: inhibition of human SENP7 cleavage activity – biochemical, luminescence, set 2, SAR follow-up (AID 588600). It counts as functional.

Another experiment has as its target T5, Caspase-3 (Homo sapiens, UniProt P42574).
T5 sequence (P42574 whole entry): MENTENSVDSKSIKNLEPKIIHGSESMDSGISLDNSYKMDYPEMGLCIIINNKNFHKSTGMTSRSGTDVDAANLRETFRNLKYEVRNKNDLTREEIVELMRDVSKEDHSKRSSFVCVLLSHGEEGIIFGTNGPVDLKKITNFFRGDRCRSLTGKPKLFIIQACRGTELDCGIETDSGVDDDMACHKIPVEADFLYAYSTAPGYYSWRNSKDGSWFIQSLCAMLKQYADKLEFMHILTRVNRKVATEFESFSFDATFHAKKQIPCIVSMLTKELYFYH
Put plainly: inhibition of recombinant caspase-3 activity – biochemical, luminescence, set 2, selectivity assay for SENP protease inhibitor project, SAR follow-up (AID 588599). It counts as functional.

Sequence of Nuclear receptor subfamily 0 group B member 1 (P51843 whole entry): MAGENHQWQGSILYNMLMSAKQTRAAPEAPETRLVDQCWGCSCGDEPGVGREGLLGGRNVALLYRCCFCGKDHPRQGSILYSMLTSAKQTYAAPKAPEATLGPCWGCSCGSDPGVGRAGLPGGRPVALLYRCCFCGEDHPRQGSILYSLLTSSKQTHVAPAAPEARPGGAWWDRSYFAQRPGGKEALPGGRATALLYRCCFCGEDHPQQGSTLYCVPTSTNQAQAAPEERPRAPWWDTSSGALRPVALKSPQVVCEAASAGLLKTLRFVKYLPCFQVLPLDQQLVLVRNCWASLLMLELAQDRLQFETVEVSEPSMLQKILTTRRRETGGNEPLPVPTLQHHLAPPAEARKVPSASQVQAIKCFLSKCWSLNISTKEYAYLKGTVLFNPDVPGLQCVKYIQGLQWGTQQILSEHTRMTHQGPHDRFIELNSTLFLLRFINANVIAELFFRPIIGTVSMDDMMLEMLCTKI
Sequence of Type-1 angiotensin II receptor (P30556 whole entry, the tested form may be a part): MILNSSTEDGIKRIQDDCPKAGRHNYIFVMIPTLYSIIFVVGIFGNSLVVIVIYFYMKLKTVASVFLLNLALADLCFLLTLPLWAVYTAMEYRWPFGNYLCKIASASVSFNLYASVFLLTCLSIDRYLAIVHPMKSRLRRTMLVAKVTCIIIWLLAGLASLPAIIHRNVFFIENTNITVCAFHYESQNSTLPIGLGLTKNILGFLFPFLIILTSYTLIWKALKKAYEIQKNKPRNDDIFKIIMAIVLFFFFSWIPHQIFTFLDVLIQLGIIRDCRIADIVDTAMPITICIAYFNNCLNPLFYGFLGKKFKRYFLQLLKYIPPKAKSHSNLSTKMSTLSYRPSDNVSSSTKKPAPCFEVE
Sequence of Beta-galactosidase (Q8VNN2 whole entry, the tested form may be a part): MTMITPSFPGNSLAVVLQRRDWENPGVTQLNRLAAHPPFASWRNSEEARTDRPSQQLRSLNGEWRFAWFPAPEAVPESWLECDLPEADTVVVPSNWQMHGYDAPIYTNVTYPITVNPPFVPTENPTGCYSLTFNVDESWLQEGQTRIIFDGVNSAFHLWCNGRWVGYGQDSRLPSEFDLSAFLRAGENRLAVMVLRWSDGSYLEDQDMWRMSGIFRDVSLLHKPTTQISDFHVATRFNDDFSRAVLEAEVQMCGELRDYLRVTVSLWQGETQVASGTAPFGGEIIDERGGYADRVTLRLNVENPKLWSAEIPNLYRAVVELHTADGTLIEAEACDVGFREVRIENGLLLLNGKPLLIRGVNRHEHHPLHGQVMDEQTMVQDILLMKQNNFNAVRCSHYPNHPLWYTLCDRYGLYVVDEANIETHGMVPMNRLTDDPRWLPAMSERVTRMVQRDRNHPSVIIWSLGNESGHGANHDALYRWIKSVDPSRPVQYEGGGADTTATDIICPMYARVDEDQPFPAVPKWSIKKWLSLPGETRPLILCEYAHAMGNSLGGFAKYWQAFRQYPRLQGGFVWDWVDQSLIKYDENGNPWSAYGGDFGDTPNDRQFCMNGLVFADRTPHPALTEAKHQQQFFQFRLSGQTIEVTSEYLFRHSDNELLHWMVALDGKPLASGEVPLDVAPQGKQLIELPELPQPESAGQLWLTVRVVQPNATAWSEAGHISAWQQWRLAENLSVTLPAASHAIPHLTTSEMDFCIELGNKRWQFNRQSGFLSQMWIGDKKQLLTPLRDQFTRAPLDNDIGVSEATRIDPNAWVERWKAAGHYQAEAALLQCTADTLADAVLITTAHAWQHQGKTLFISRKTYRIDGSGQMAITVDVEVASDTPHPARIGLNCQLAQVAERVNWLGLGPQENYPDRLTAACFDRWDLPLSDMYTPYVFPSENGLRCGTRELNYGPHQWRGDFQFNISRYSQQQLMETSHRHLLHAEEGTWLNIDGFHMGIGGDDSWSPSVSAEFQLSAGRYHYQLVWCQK
Sequence of Glycogen synthase kinase-3 alpha (P49840 whole entry): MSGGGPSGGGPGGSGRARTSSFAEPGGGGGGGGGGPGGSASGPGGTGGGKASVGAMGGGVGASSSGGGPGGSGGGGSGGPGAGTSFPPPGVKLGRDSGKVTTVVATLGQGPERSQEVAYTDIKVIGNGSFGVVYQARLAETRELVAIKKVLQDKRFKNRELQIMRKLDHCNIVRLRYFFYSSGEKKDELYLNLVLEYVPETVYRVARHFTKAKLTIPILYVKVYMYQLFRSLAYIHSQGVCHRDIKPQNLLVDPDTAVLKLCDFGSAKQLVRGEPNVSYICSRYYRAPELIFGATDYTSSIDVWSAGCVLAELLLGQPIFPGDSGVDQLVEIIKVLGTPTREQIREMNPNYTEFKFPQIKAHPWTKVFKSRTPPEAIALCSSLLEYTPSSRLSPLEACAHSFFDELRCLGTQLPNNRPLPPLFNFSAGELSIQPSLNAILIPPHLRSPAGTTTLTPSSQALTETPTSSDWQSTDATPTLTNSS
Sequence of Glycogen synthase kinase-3 beta (P49841 whole entry): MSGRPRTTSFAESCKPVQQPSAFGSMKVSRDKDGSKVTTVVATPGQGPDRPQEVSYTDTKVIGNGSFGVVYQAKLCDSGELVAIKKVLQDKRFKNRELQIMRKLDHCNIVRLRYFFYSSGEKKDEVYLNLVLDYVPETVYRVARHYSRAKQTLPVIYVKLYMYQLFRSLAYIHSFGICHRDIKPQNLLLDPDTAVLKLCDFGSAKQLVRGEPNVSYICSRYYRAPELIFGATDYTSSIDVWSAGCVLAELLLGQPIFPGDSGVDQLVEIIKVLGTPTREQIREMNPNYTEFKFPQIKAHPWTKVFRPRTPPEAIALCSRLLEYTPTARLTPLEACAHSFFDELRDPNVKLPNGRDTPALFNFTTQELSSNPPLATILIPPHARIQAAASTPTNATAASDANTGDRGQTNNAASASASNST
Sequence of Beta-2 adrenergic receptor (P07550 whole entry): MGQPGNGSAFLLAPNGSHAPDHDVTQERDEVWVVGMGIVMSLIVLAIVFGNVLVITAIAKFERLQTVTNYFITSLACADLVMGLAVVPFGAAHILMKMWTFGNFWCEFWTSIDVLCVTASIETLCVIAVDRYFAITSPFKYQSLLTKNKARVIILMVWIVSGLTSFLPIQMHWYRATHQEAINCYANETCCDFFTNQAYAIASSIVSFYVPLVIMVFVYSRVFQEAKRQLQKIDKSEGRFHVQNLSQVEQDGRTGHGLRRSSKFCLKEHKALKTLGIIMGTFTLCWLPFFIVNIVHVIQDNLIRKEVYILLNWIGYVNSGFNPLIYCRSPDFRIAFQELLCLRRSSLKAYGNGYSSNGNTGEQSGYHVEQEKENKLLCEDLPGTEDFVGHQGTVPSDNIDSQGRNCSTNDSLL

Regarding `O=C(CNc1ccc(F)cc1)c1ccccc1`, the AC50 was 4.61 µM (active) in experiment [1], 1.57 µM (active) in experiment [2], 1.54 µM (active) in experiment [4] and 1.17 µM (active) in experiment [5]. Also, the IC50 in experiment [3] is 7.06 µM (active). Moreover, at Beta-galactosidase, the EC50 was > 40 µM (inactive).
Take `CN(CCOc1ccc(-c2ccn(S(=O)(=O)c3cccc4ccccc34)n2)cc1)c1ccccn1`: the EC50 in [6] is 2.53 µM (active).
In the case of `c1ccc(N2CCN(c3ccccc3)C2c2cccs2)cc1`, the IC50 (in [7]; with HEK293 [8]) was > 67.5 µM (inactive) throughout.
For `O=C1Nc2cc(C(=O)NCCN3CCCCCC3)ccc2S/C1=C\c1ccccc1`, the results for the AC50 in experiment [9], in [11] and in experiment [12] were 2.29 µM (active), 9.78 µM (active) and 63.7 µM (active), respectively. For the same compound, the CC50 in experiment [10] is 12.5 µM (active); in experiment [13] it was 12.1 µM (active); in experiment [14], 6.89 µM (active). Moreover, the IC50 in “cells” is 37.8 µM (active).
Regarding `COc1cc(N)c2ncccc2c1`, the IC50 in the experiment on Jurkat was 76.2 µM (inactive); in the experiment on HEK293 [15], 43.1 µM (inactive); with HEK293 [16], > 79 µM (inactive).
Consider `Cc1[nH]c2ccccc2c1/C=N/NC(=O)c1cc2ccccc2cc1O`, for which the IC50 is 79.4 µM (active) in [17], 83.4 µM (active) in [18], 95.7 µM (active) in experiment [19] and > 99 µM (inactive) on Caspase-3.
